Here are results for eight molecules from patent US20260232607A1, “COMPOSITIONS AND METHODS INVOLVING ISOLATED COMPOUNDS” (CuraSen Therapeutics, Inc., priority 2022, published 2026).

Molecules are shown by their SMILES. Where two headings read alike, the source gives them in different places.

Data set [1] has as its target T1, β1-AR (Homo sapiens, UniProt P08588).
T1 construct: expressed in transfected cells; host or cells: CHO-K1
Kind of data set: cAMP Gs HTRF assay, inhibition of isoproterenol-stimulated cAMP, affinity by Leff-Dougall equation. In kind it is cell-based. The note with it: CHO-K1 cells, approximate EC80 isoproterenol. The text has this:
When cAMP turnover is reduced by blocking phosphodiesterases with IBMX, cAMP accumulation occurs, and this accumulation is detected in the cAMP Gs Homogenous Time Resolved Fluorescence (HTRF) assay. The HTRF assay is a competitive inhibition assay. Endogenous cAMP, produced by stimulated cells, competes with and prevents FRET between acceptor-labeled cAMP and donor-labeled cAMP antibody. Increases in endogenous cAMP therefore cause a reduction in HTRF signal, expressed as a ratio of FRET acceptor fluorescence and FRET donor fluorescence.
cAMP HTRF measurements were performed broadly according to the cAMP Gs dynamic kit protocol (Cisbio/Perkin Elmer, 62AM4PEC). Compounds were prepared at 2× final concentration to accommodate the subsequent addition of cells. […] Test compounds were serially diluted across the plate by nine 5-fold dilutions to generate a 10-point dose-response curve.
384 well plates containing compound were covered and stored at room temperature until resuspended cell addition.
D2-labelled cAMP (Acceptor) and Europium cryptate labelled cAMP antibody (Donor) (Cisbio/Perkin Elmer 62AM4PEC) were dissolved in water following the manufacturer's instructions, aliquoted and stored at −80° C.
CHO-K1 cells expressing exogenous β-ARs were resuspended using methods as described above, were recovered from flasks using PBS […] (Caisson PBL02) and centrifuged at 250×g for 5 minutes in a 50 ml falcon tube. PBS/versene was removed by aspiration and cells were resuspended in a minimal volume of room temperature 1× stimulation buffer+IBMX prior to cell counting. 5 ul cells of correct density (2000 cells/well) were added to compound in assay plates using a Multidrop Combi (Thermofisher). Cells and compounds were covered with a clear plate seal (Axygen PCR-SP) and incubated at 37° C., 5% CO2 for 30 minutes. cAMP accumulation was then stopped by adding 10 μL HTRF detection reagents in lysis buffer using the Multidrop Combi, plates were covered with an aluminum plate seal (Axygen PCR-AS-600) and agitated (Heidolph Titramax 1000, setting 600) for at least 2 hours, to allow competition between D2-cAMP and stimulated cAMP for the donor-labelled cAMP antibody to reach equilibrium.
HTRF was detected using a Tecan Spark plate reader, operated using SparkControl™ software, using the TR fluorescence intensity setting. Both donor and acceptor was excited at 320 nm, detected after 100 μs delay, with 400 μs integration time, and 50 flashes per read. […] To standardize reads across experiments, camera gain was manually set to 120 for donor detection, and 140 for acceptor detection.
Background: TR-FRET usually uses a lanthanide donor and a delayed reading to cut background.

Data set [2] is described as follows: In vivo PK in rats (IV and PO). Conditions: male SD rat. As for the experimental part: The rat pharmacokinetics studies of exemplary compounds NI-C and NI-D were conducted with male SD rats. These rats were typically about 6-8 weeks old, weighing 200 g to 300 g. Animals were fasted overnight and have free access to food 4 hours after dosing. A required volume of vehicle was added to reach the target concentration of the test article and vehicle component to prepare for the dosing. The dosing vehicle was PEG400 or 30% PEG400 in saline for IV, or 0.5% methylcellulose in water for PO. For IV dosing, the animals were administered intravenously via tail vein. For PO dosing, the animals were administered via oral gavage. After dosing, blood sample was collected (~0.2 mL per time point) through jugular vein or heart puncture. Blood of each sample was transferred into plastic micro centrifuge tubes containing EDTA-K2. Collection tubes with blood samples and anticoagulant were inverted several times for proper mixing of the tube contents and then placed on wet ice. The blood samples were centrifuged at 2000 g for 5 minutes at 4° C. to obtain plasma which was stored in a freezer at −75±15° C. prior to analysis. Samples were analyzed using LC-MS/MS. WinNonlin were used for pharmacokinetic calculations.

In data set [3] the target is T2, OATP1A2 (Homo sapiens, UniProt P46721).
T2 sequence (P46721 1-670): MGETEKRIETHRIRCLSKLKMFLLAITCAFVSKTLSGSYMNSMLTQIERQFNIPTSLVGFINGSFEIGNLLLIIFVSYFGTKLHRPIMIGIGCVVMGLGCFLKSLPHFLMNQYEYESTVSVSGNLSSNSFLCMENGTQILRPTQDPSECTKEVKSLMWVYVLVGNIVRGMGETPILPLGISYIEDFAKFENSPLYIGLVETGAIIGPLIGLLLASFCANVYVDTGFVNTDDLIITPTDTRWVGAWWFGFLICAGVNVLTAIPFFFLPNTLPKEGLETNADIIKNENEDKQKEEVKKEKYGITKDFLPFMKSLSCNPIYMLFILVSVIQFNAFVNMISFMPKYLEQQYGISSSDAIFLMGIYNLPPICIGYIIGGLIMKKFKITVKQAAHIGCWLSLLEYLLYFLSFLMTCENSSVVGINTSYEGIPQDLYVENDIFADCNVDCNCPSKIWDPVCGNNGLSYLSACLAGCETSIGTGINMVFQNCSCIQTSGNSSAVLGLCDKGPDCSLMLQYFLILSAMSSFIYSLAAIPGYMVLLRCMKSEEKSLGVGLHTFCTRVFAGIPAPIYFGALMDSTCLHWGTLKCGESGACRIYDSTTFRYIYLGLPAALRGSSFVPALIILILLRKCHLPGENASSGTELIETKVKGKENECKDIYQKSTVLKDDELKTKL
Description: Uptake in OATP1A2-transfected cells versus control cells. Conditions: 2-fold threshold.

The nature of data set [4]: clinical. The note with it: human, CSF/plasma.
In data set [5] the target is T3, β2-AR (Homo sapiens, UniProt P07550). Kind of data set: Radioligand binding. The note with it: read-out: β2-AR affinity by radioligand binding. The text has this:
In contrast, NI-C blocks the fraction of peripheral β2-AR receptors bound by Compound 03-5 to 0.02 while maintaining the fraction of central β2-AR receptors bound by Compound 03-5 to 0.21.

Data set [6] in a line: CSF and plasma concentrations in healthy human subjects dosed with Compound 03-5 and nadolol. Conditions: for CSF/Plasma ratio: Day 6; for Concentration in CSF / Concentration in plasma: Day 6, 2 hrs after Compound 03-5 (15 mg), nadolol 20 mg.
The target in data set [7] is T3, β2-AR. Description: Compound 03-5 β2-AR occupancy calculated with the Gaddum equation from measured plasma and CSF concentrations. The note with it: alone, no nadolol or isomer competition.
In data set [8] the target is T2, OATP1A2.

What is called pKi is the negative decadic logarithm of the Ki, by convention in mol/L. Read a high pKi as a low Ki. Broadly, the Cmax is the peak of the concentration-time curve. One may read the MRT as a mean duration of stay, worked out from the concentration-time curve. In general, Tmax refers to the time at which the peak concentration occurs. For orientation: Kp means the ratio of the level in a tissue or fluid to that in plasma or blood.

T1 sequence (P08588 whole entry): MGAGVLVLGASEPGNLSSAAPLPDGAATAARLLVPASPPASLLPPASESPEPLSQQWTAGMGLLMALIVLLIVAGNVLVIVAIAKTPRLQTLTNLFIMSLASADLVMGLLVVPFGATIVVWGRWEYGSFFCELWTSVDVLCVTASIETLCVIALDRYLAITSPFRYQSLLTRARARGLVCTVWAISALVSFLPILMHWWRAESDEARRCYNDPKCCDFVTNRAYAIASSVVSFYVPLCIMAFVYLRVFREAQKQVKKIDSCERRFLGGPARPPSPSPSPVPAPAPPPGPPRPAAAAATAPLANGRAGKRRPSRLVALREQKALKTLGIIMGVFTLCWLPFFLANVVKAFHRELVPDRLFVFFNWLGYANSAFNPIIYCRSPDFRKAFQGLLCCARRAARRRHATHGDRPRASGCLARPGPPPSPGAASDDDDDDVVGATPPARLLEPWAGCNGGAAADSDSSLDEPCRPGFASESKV
T3 sequence (P07550 whole entry): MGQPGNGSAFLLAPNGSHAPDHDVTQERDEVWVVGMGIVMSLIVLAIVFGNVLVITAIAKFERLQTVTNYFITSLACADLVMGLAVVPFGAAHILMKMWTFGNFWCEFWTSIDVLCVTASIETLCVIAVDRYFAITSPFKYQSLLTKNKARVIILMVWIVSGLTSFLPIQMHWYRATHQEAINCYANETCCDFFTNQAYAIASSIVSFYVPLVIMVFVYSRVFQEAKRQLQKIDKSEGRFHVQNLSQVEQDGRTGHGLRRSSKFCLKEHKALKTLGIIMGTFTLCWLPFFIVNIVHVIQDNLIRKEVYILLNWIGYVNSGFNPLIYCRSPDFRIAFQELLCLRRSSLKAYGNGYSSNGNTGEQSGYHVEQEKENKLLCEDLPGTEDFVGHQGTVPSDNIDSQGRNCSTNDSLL

In data set [1], `CC(C)(C)NCC(O)COc1cccc2c1CC(O)C(O)C2` (single isomer, unassigned) [NI-A, (RSR)-nadolol] yielded a Ki of 0.891 µM and a pKi of 6.05 ± 0.10.
Consider `CC(C)(C)NCC(O)COc1cccc2c1CC(O)C(O)C2` (single isomer, unassigned) [NI-B, (RRS)-nadolol], for which, in data set [1], the Ki turned out to be 0.354 µM and the pKi came to 6.45 ± 0.10.
With `CC(C)(C)NCC(O)COc1cccc2c1CC(O)C(O)C2` (single isomer, unassigned) [NI-C, (SRS)-nadolol], in data set [1], the Ki amounted to 0.0046 µM and the pKi came to 8.34 ± 0.12. Besides, in data set [2] (1 mg/kg iv), the AUCInf came out at 0.488 µg·h/mL, the C0 came out at 1.142 µg/mL, the CL is 2.07 L/h/kg and the T1/2 is on record as 2.87 h. For the same molecule, in data set [2] (1 mg/kg iv), the Vss amounted to 4.74 L/kg. Also, in data set [2] (5 mg/kg po), the AUCInf turned out to be 0.2 µg·h/mL, the Cmax stood at 0.0379 µg/mL, the MRT worked out at 4.12 h and the Tmax was 1.08 h. Moreover, in data set [2] (5 mg/kg po vs 1 mg/kg iv), the Bioavailability came to 8.21%.
Consider `CC(C)(C)NCC(O)COc1cccc2c1CC(O)C(O)C2` (single isomer, unassigned) [NI-D, (SSR)-nadolol], for which, in data set [1], the Ki amounted to 0.0026 µM and the pKi is given as 8.58 ± 0.18.
As to `CC(C)(C)NCC(O)COc1cccc2c1CC(O)C(O)C2` (centres unmarked) [(SRS)-NADOLOL], the “Substrate for OATP1A2” value in data set [3] was “appear to be substrates for OATP1A2”.
Regarding `CC(C)(C)NCC(O)COc1cccc2c1CC(O)C(O)C2` (centres unmarked) [(SSR)-NADOLOL], in data set [3], the “Substrate for OATP1A2” value is “does not appear to be a substrate for OATP1A2”.
For `CC(C)(C)NC[C@H](O)c1cccc(C#N)n1` [Compound 03-5], the Kp in data set [4] turned out to be 0.47; in data set [4] (oral), 0.42. Also, the Ki in data set [5] came to 0.374 µM. The CSF/Plasma ratio in data set [6] (Average of 4 subjects) was determined as 47%; in data set [6] (Subject B), 44%; in data set [6] (Subject C), 42%; in data set [6] (Subject D), 59%. For the same molecule, the “Concentration in CSF” value in data set [6] (Average of 4 subjects) worked out at 0.034675 µg/mL; in data set [6] (Subject A), 0.037 µg/mL; in data set [6] (Subject B), 0.0271 µg/mL; in data set [6] (Subject C), 0.0303 µg/mL; in data set [6] (Subject D), 0.0443 µg/mL. For the same molecule, the Concentration in plasma in data set [6] (Average of 4 subjects) was found to be 0.07425 µg/mL; in data set [6] (Subject A), 0.0874 µg/mL; in data set [6] (Subject B), 0.0612 µg/mL; in data set [6] (Subject C), 0.0729 µg/mL; in data set [6] (Subject D) it was 0.0755 µg/mL. Besides, the “Fraction of β2-AR receptors bound by Compound 03-5 in the CSF” value in data set [7] was 0.29. For the same molecule, in data set [7], the “Fraction of β2-AR receptors bound by Compound 03-5 in the periphery” value is listed as 0.46.
Consider `CC(C)(C)NCC(O)COc1cccc2c1CC(O)C(O)C2` (centres unmarked) [Nadolol, reference compound], for which the Ki in data set [1] was 0.0055 µM. Besides, in data set [8], the “Substrate for OATP1A2” value is “appear to be substrates for OATP1A2”.
